This passage reports IC50, Activity and EC50 results from ChEMBL document CHEMBL1125986, “()-2-amino-2-thiazoline-4-ethanoic acid; a novel, specific GABAA receptor agonist” (Bioorg Med Chem Lett, 1991).

The target in assay [1] is GABA-A receptor; anion channel. In words: Inhibition of [3H]-GABA binding to GABA-A receptor in rat cerebral cortex homogenates. The class given is tissue-based.
Assay [2] concerns the target GABA-A receptor; anion channel (Rattus norvegicus) (UniProt O09028+P15431+P18506+P18508+P19969+P20236+P23574+P23576+P28471+P28473+P30191+P62813+P63079+P63138+Q91ZM7+Q9ES14). Briefly: Enhanced [3H]benzodiazepine binding in rat cortical membranes at 100 uM. The format is cell membranes.
The target in assay [3] is GABA-A receptor; anion channel. In words: Effective concentration for stimulation of [3H]diazepam binding to rat cortical membranes. The class given is functional, cell membranes, Membrane.
The species named for a further assay is Rattus norvegicus. In words: Tested for inhibition of CA1 population spike in rat hippocampal slice by electrophysiological experiment. The class given is functional. Conditions: Hippocampus.

Compound `NC1=NC(CC(=O)O)CS1` (centres undefined) returned an IC50 in assay [1] of 0.5 µM. Also, the Activity in assay [2] stood at 142%. For the same compound, the concentration giving a half-maximal response (EC50) in assay [3] amounted to 3.4 µM; in the assay listed under Rattus norvegicus it was 28.3 µM.

The compound `Oc1noc2c1CCNC2` [GABOXADOL] gave an EC50 in the assay listed under Rattus norvegicus of 55 µM.

`O=C(O)C1=CCNCC1` [ISOGUVACINE] showed a half-maximal inhibitory concentration (IC50) in assay [1] of 0.49 µM. Also, the Activity in assay [2] turned out to be 156%. Moreover, the half-maximal effective concentration (EC50) in assay [3] was determined as 3.1 µM; in the assay listed under Rattus norvegicus, 13 µM.
